Experimental findings from US20180353501A1 (Arvinas, Inc., priority 2017, published 2018) are described below.

This assay has as its target T1, VHL (GST-VBC) (Homo sapiens, UniProt P40337).
T1 construct: made in house; host or cells: E. coli BL21(DE3)
Put plainly: SPR binary affinity, PROTAC on immobilized GST-VBC. The class given is binding. As for the experimental part:
FIGS. 16A, 16B, and 16C. SPR curves assessing binary and ternary interactions. […] (C) SPR kinetic evaluation of p38δ:compound 46:VHL and p38δ:compound 50:VHL ternary complex interactions. Equimolar p38δ:PROTAC mixtures were injected onto immobilized GST-VBC and allowed to dissociate overtime. […] See Table 12 for a summary of the binary and ternary affinity and kinetic measurements.
Next, with the same setup, equimolar p38δ:PROTAC dilutions were successively injected onto immobilized VHL for 60 seconds, prior to monitoring complex dissociation for the remaining 300 seconds. […]
For the expression of GST-tagged VHL:Elongin B:Elongin C (herein referred to as GST-VHL), wild-type human VHL, Elongin B, and Elongin C were co-expressed in E. coli. […] Eluted protein was assessed for identity and purity via coomassie staining of sample run on an SDS-PAGE gel and pure elutions were pooled, concentrated, and diluted in ion-exchange buffer A (30 mM Tris pH 8.0, 5% glycerol, 1 mM DTT) until the salt concentration was 50 mM, before loading onto a Mono Q 5/50 GL column (GE Life Sciences). […] Fractions were then assessed for purity via coomassie, pooled, concentrated, and run on a Superdex-200 column (GE Life Sciences) using size-exclusion buffer (30 mM Tris pH 8.0, 100 mM NaCl, 10% glycerol, 1 mM DTT). […]

SMILES strings stand for the structures.

T1 sequence (P40337 whole entry): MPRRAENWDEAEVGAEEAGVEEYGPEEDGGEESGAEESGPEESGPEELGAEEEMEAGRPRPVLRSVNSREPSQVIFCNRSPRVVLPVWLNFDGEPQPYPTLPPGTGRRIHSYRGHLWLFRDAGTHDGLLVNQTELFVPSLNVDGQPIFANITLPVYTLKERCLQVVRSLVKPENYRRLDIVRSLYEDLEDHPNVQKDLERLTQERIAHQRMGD
T1 sequence (Q15370 whole entry partner): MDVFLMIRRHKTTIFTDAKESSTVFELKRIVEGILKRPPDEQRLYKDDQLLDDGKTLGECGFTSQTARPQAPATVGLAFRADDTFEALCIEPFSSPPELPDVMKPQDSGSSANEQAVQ
T1 sequence (Q15369 whole entry partner): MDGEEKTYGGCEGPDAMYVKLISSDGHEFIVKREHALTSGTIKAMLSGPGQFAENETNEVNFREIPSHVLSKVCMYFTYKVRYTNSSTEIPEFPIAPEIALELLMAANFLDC

`COc1cc2c(Oc3ccc(NC(=O)C4(C(=O)Nc5ccc(F)cc5)CC4)cc3F)ccnc2cc1OCCOCCOCCOc1cc(-c2scnc2C)ccc1CNC(=O)[C@@H]1C[C@@H](O)CN1C(=O)[C@H](C(C)C)N1Cc2ccccc2C1=O` [compound 46]: the Kd amounted to 3.5 µM.

Molecule `COc1cc2c(Oc3ccc(NC(=O)C4(C(=O)Nc5ccc(F)cc5)CC4)cc3F)ccnc2cc1OCCCCOCCCCOCC(=O)N[C@H](C(=O)N1C[C@H](O)C[C@H]1C(=O)NCc1ccc(-c2scnc2C)cc1)C(C)(C)C` [compound 50, N-(3-fluoro-4-((7-(4-(4-(2-(((S)-1-((2S,4R)-4-hydroxy-2-((4-(4-methylthiazol-5-yl)benzyl)carbamoyl)pyrrolidin-1-yl)-3,3-dimethyl-1-oxobutan-2-yl)amino)-2-oxoethoxy)butoxy)buto-xy)-6-methoxyquinolin-4-yl)oxy)phenyl)-N-(4-fluorophenyl)cyclopropane-1,1-dicarboxa-mide] displayed a Kd of 5 µM.
